Source: patent US20150218142A1, “Derivatives of Betulin” (GlaxoSmithKline LLC, priority 2011, published 2015)
Like-named read-outs stand apart in the source and are kept apart here.

Experiments:
HIV NL4-3 wt = test: microbe, parasite or virus in culture; type: cell-based
[1] = test system: NL4-3 strain with V370A site directed mutant polymorphism; test: microbe, parasite or virus in culture; type: cell-based, HIV-1
HIV [2] = test system: HIV
HIV [3] = settings: McCallister et al. 2008 poster; cited from earlier work
HIV [4] = test: microbe, parasite or virus in culture; settings: Human immunodeficiency virus 1, read-out: LHIV IC50 value with 40% human serum
[5] = Human immunodeficiency virus 1, NL43, Consensus Clade B Sp1 Genotype, read-out: MT4 NL. wt* EC50
[6] = Human immunodeficiency virus 1, NL43, HIV MT4 Antiviral Cell Assay of Example 84, read-out: EC50 NL4-3 wt

For `CC(C)C1=C2[C@H]3CC[C@@H]4[C@@]5(C)CC[C@H](OC(=O)CC(C)(C)C(=O)O)C(C)(C)[C@@H]5CC[C@@]4(C)[C@]3(C)CC[C@@]2(C(=O)C(=O)NC2(c3ccc(Cl)cc3)CC2)CC1=O` [Compound A], the EC50 (HIV NL4-3 wt; [5]) was 0.014 µM and the EC50 ([1]; Human immunodeficiency virus 1, NL43, read-out: MT4 NL. V370A EC50 (nM)) was 16 nM.
For `CC(C)C1=C2[C@H]3CC[C@@H]4[C@@]5(C)CC[C@H](OC(=O)CC(C)(C)C(=O)O)C(C)(C)[C@@H]5CC[C@@]4(C)[C@]3(C)CC[C@@]2([C@@H](O)CNCc2cccc(Cl)c2)CC1=O` [compound 38], the EC50 (HIV NL4-3 wt; [6]) was 0.0052 µM.
Work on `CC(C)C1=C2[C@H]3CC[C@@H]4[C@@]5(C)CC[C@H](OC(=O)CC(C)(C)C(=O)O)C(C)(C)[C@@H]5CC[C@@]4(C)[C@]3(C)CC[C@@]2(C(=O)C(=O)NC2(c3ncc(Cl)cn3)CC2)CC1=O` [CompoundB] yielded an EC50 (HIV NL4-3 wt; [5]) of 0.008 µM.
In the case of `C=C(C)[C@@H]1CC[C@]2(C(=O)O)CC[C@]3(C)[C@H](CC[C@@H]4[C@@]5(C)CC[C@H](OC(=O)CC(C)(C)C(=O)O)C(C)(C)[C@@H]5CC[C@]43C)[C@@H]12` [Bevirimat], the “fold shift in the IC50 value, LHIV assay, 40% human serum” value (HIV [2]; addition of 40% human serum) is given as 174.9 fold, the “fold shift with human serum” value (HIV [2]; human protein shift, human serum (HS)) is given as 157 fold and the Cmin target (HIV [3]) is given as over 20000 ng/mL. It also gave an IC50 (HIV [4]) of 3.88 µM.
`CC(C)C1=C2[C@H]3CC[C@@H]4[C@@]5(C)CC[C@H](OC(=O)CC(C)(C)C(=O)O)C(C)(C)[C@@H]5CC[C@@]4(C)[C@]3(C)CC[C@@]2([C@@H](O)CNC2CCCCC2)CC1=O` [compound 59] gave an EC50 (HIV NL4-3 wt; [6]) of 0.0053 µM.
`CC(=O)O[C@H](CNCc1ccccc1)[C@@]12CC[C@]3(C)[C@H](CC[C@@H]4[C@@]5(C)CC[C@H](OC(=O)CC(C)(C)C(=O)O)C(C)(C)[C@@H]5CC[C@]43C)C1=C(C(C)C)C(=O)C2` [compound 53] showed an EC50 (HIV NL4-3 wt; [6]) of 0.0062 µM.
`CC(C)C1=C2[C@H]3CC[C@@H]4[C@@]5(C)CC[C@H](OC(=O)CC(C)(C)C(=O)O)C(C)(C)[C@@H]5CC[C@@]4(C)[C@]3(C)CC[C@@]2(C(=O)C(=O)N(CCN(C)C)Cc2ccc(Cl)cc2)CC1=O` [Compound C] gave an EC50 (HIV NL4-3 wt; Human immunodeficiency virus 1, NL43, Table 7, read-out: HIV w/t MT4 EC50) of 0.006 µM, an EC50 (HIV NL4-3 wt; Human immunodeficiency virus 1, NL43, read-out: MT4 antiviral assay NL4-3 strain / HIV wild type EC50) of 0.006 µM and an EC50 ([1]; Human immunodeficiency virus 1, NL43, read-out: MT4 antiviral assay V370A polymorphism EC50) of 19 nM. For the same compound, the EC50 ([1]; Human immunodeficiency virus 1, NL43, read-out: V370A MT4 EC50) was 19 nM and the EC50 ([1]; Human immunodeficiency virus 1, NL43, read-out: protein adjusted EC50 for the V370A polymorphic virus) was 929 nM.
`CC(C)C1=C2[C@H]3CC[C@@H]4[C@@]5(C)CC[C@H](OC(=O)CC(C)(C)C(=O)O)C(C)(C)[C@@H]5CC[C@@]4(C)[C@]3(C)CC[C@@]2([C@H](O)CNCc2cccc(Cl)c2)CC1=O` [compound 37] showed an EC50 (HIV NL4-3 wt; [6]) of 0.0269 µM.
